Measured values from ChEMBL document CHEMBL3507680, “University of Dundee, Gates Library screen for HepG2 cell viability”.

Experiment: Human HepG2 cell viability assay in 384 well format
Assay type: toxicity, cell-based
Set-up: dose 125 nL, time 70.5 hour; concentration not given beside the values
Settings: HepG2 cells, read-out: Inhibition

| SMILES | cytotoxicity at 70.5 h [%] |
| --- | --- |
| COc1cccc(CCC(=O)N2CCCC(c3nncn3C)C2)c1 (stereo not given) | -7.27 |
| CC(Cn1cccn1)NC(=O)N1CCN(Cc2ccsc2)CC1 (stereo not given) | -1.89 |
| O=C(Cc1c[nH]c2ccccc12)N1CCC(Nc2ccccc2)CC1 | -3.37 |
| CCCc1nc(C)c(C(=O)NCCNc2ncccc2C#N)s1 | 0.537 |
| Cc1nc(C(C)(C)C)sc1C(=O)NCCNc1ncccc1C#N | -7.48 |
| Cc1ncc(C(=O)NCCNc2ncccc2C#N)s1 | -0.109 |
| Cc1nc(C)c(C(=O)NCCNc2ncccc2C(F)(F)F)s1 | -7.63 |
| COc1ccc(F)cc1C(=O)N1CCCC(CNS(C)(=O)=O)C1 (stereo not given) | 1.51 |
| CC(C)Oc1ncccc1CNC(=O)c1ccccn1 | -2.17 |
| Cc1occc1CNC(=O)NCCN(C)C1CCCC1 | -0.13 |
| Cc1noc(CN2CCCC2c2noc(C3CC3)n2)n1 (stereo not given) | 20.7 |
| CCCc1nc(CN2CCc3c(ncn3C3CC3)C2)cs1 | -5.23 |
| CCc1n[nH]c(C2CN(C(=O)c3cnc(C)nc3CC)CCO2)n1 (stereo not given) | -8.34 |
| Cc1nc(C2CCCN2C(=O)Cn2cncn2)no1 (stereo not given) | -9.87 |
| CC(NC(=O)COCC(F)(F)F)c1nnc2n1CCCCC2 (stereo not given) | -16.3 |
| O=C(NCCn1ccnc1)N1CCN(Cc2ccco2)CC1 | -3.81 |
| c1ccc(-n2cc(CN3CCCC3Cn3cccn3)nn2)cc1 (stereo not given) | -10.7 |
| CCc1nc(CN2CCc3c(ncn3C3CC3)C2)cs1 | -17 |
| CCOc1ccc(C(=O)N2CCCC(n3ccnc3C)C2)cc1OC (stereo not given) | -7.46 |
| CCc1n[nH]c(C2CN(C(=O)c3ncoc3CC)CCO2)n1 (stereo not given) | -13.4 |
| CCOc1ccc(NC(=O)NCc2cccnc2OCC)cc1 | -9.72 |
| Cn1ccc(C(=O)NCc2ccc(CN3CCCCC3)cc2)cc1=O | -12 |

| SMILES | cytotoxicity at 70.5 h [%] |
| --- | --- |
| COc1ncccc1CNC(=O)Nc1ccc(N(C)C)nc1 | -12.5 |
| Cc1noc(C(C)C)c1C(=O)NCCCN1CCCCCC1=O | -7.03 |
| CN1CCCN(C(=O)NCCOc2ccc3c(c2)OCO3)CC1 | -2.86 |
| NC(=O)C1CCN(C(=O)NCCOc2ccc3c(c2)OCO3)C1 (stereo not given) | -8.31 |
| CC(=O)N1CCN(CC(C)(O)c2cccc(C(F)(F)F)c2)CC1 (stereo not given) | -8.81 |
| Cc1ccc(OCc2nc(CNCC3CN(C)CCO3)cs2)cc1 (stereo not given) | 29.7 |
| Cc1nc(CN(C)C2CCN(CCc3cccs3)C2)no1 (stereo not given) | 23.7 |
| Cc1cccc(OCCCN2CCC(N(C)Cc3noc(C)n3)C2)c1 (stereo not given) | 25.5 |
| Cc1nc(CN(C)C2CCN(CCCOc3ccc(F)cc3)C2)no1 (stereo not given) | 22.2 |
| Cc1nc(CN(C)C2CCN(CCCOc3ccccc3C)C2)no1 (stereo not given) | 0.379 |
| CCc1nc(CN(C)C2CCN(CCc3cccs3)C2)no1 (stereo not given) | -6.05 |
| O=C(NCC(=O)N1CCC2(CC1)OCCO2)c1ccoc1 | -7.96 |
| CN1CCC/C1=N\S(=O)(=O)c1ccc(NC(=O)c2ccc(Cl)cc2)cc1 | 1.42 |
| CN1CCC/C1=N\S(=O)(=O)c1ccc(NC(=O)Cc2cccs2)cc1 | -2.68 |
| CC(C)c1cc(NC(=O)CN2CCC(C(N)=O)CC2)on1 | -6.12 |
| CC(C1CC1)N(C)C(=O)c1ccc(-n2ncc(C#N)c2N)cc1 (stereo not given) | -6.01 |
| Cc1cccc(OCC(O)CN2CCC(Cn3cccn3)CC2)c1 (stereo not given) | 22.2 |
| N#Cc1cnn(-c2ccc(C(=O)N(C3CCCCC3)C3CC3)cc2)c1N | -0.0932 |
| COCCN(C)C(C)c1cccc(S(N)(=O)=O)c1 (stereo not given) | 0.815 |
| Cc1ccc(OCCN(C)C(C)c2cccc(S(N)(=O)=O)c2)cc1 (stereo not given) | 1.1 |
| O=C(NCC(=O)N1CCCC(c2ccccc2)CC1)c1ccoc1 (stereo not given) | 1.06 |
| CCN(Cc1cccc2c1OCO2)C(=O)NCc1ccccn1 | 13.5 |

| SMILES | cytotoxicity at 70.5 h [%] |
| --- | --- |
| COc1ccc(Cl)cc1CC(=O)N1CCN(CC(C)O)CC1 (stereo not given) | -5.64 |
| CCc1nc(CN(C)C2CCN(CCOc3ccccc3)C2)no1 (stereo not given) | 0.0512 |
| CNC(=O)C1CCN(CC(=O)Nc2cc(C(C)C)no2)CC1 | -1.42 |
| c1ccc(-c2nc(CN3CCCC(Cn4cncn4)C3)no2)cc1 (stereo not given) | 2.09 |
| CN1CCCc2cc(CNC(=O)c3ccc(NC4CC4)nc3)ccc21 | -3.79 |
| Cc1nc(C)n(CC2CCCN(CCc3ccccn3)C2)n1 (stereo not given) | 28.4 |
| COc1ccc(OCCCN2CCOC(Cn3cccn3)C2)cc1 (stereo not given) | 15.4 |
| Cc1ccc(NC2CCN(C(=O)CN(C)C3CC3)CC2)nn1 | -1.46 |
| Cn1cc(C(=O)CC2CCCN2C(=O)c2n[nH]c3ccccc23)cn1 (stereo not given) | 8.22 |
| CCN(CCNC(=O)c1ccccc1Br)C1CC1 | -3.52 |
| CCNC(c1cccnc1)c1cc(C)cc(C)c1 (stereo not given) | 2.24 |
| Cc1nn(C)c(Cl)c1C1CCCN1CCc1ccccn1 (stereo not given) | 1.44 |
| CCNC(c1cccnc1)c1ccc(F)c(F)c1 (stereo not given) | -2.78 |
| Fc1ccc(OCCCN2CCOC(Cn3cncn3)C2)cc1 (stereo not given) | -5.61 |
| Cc1cnn(CCC(=O)N2CCCN(c3cccnn3)CC2)c1 | -2.44 |
| Cc1cnc(CN(C)C2CCN(CCn3cc(C#N)cn3)C2)o1 (stereo not given) | 7.37 |
| CCC1CN(CCNC(C)=O)CCN1CCOC (stereo not given) | 2.28 |
| CC(=O)N1CCN(C(=O)c2cnn(-c3ccccc3Cl)c2)CC1 | 3.15 |
| CCOc1cccc2c1OCC(C(=O)NS(=O)(=O)c1ccc(Cl)cc1)=C2 | 21.1 |
| CCCN(Cc1ccccc1)Cn1nc(C)c2c(C)onc2c1=O | 0.0673 |
| CCN(Cc1cccc(Cl)c1)Cn1nc(C)c2c(C)onc2c1=O | 25.1 |
| c1ccc2sc(CN3CCOC(Cn4cccn4)C3)nc2c1 (stereo not given) | 24.8 |

| SMILES | cytotoxicity at 70.5 h [%] |
| --- | --- |
| Cc1cnn(C2CCCN(C(=O)c3cnc4ccccc4n3)C2)c1 (stereo not given) | -7.22 |
| Cc1cnn(CC2CCCN2C(=O)c2cn(-c3ccccc3)nc2C)c1 (stereo not given) | 6.33 |
| Cc1cc(C)cc(N(C)S(=O)(=O)c2cc(C(=O)O)cs2)c1 | -6.25 |
| N#Cc1cc(NS(=O)(=O)c2ccc(C(=O)O)cc2F)ccc1F | -1.12 |
| Cc1nc(CN2CCOC(CNc3cccnn3)C2)oc1C (stereo not given) | 30.3 |
| O=C(Cc1noc2ccccc12)N1CCCC1c1noc(C2CC2)n1 (stereo not given) | 32.1 |
| CC(C)(C)SCCCC(=O)N1CCC(Nc2cccnn2)CC1 | -6.39 |
| C1CC(NCc2nc(C3CC3)no2)CN(Cc2noc(C3CC3)n2)C1 (stereo not given) | 21.5 |
| O=C(c1cccc(CN2CCCC2)c1)N1CCCC(n2cncn2)C1 (stereo not given) | 16.1 |
| Cc1ccccc1CCNC(=O)C1CC(=O)N(CC(F)(F)F)C1 (stereo not given) | 26.6 |
| CNS(=O)(=O)c1cccc(CNc2nccc(C(F)(F)F)n2)c1 | 53.4 |
| Cc1csc(N2CCN(C(=O)CCC(=O)c3ccc(C)s3)CC2)n1 | 7.78 |
| O=C(NCCNc1ncccn1)C1CCN(CC(F)(F)F)CC1 | -3.78 |
| Cc1nc(-c2ccccc2)n(CC(=O)N(C(C)C)C(C)C)n1 | 2.39 |
| CC(C)OCCCNC(=O)c1ccc(-c2ccco2)[nH]c1=O | -2.82 |
| O=C(NCCNc1ncccn1)C1CC(=O)N(CC(F)(F)F)C1 (stereo not given) | -14.3 |
| Cc1ccccc1CC(=O)N1CCN(C2CCOC2=O)CC1 (stereo not given) | -5.25 |
| CC(C)COCC(NC(=O)c1ccccn1)c1ccco1 (stereo not given) | -10.5 |
| CCC(CC)NC(=O)Cn1nc(C)nc1-c1ccccc1 | -6.22 |
